{"source": "paper PMC11272978", "about": "“Exploring the central region of amylin and its analogs aggregation: the influence of metal ions and residue substitutions” (Frontiers in Chemistry, 2024)", "key": {"[1]": {"assay": "1D 1H NMR signal intensity over time (aggregation)", "type": "physicochemical", "conditions": "310 K, over 44 hours; for NMR signal intensity over time (signal loss = aggregation), peptide alone: D2O with 20 mM phosphate buffer pH 7.4, 1.5 mM peptide (100 μM for hIAPP-F and Pramlintide-M)", "description": "All peptides (except hIAPP-F and Pramlintide-M) were dissolved in 99.8% deuterium oxide containing 20 mM of phosphate buffer (pH 7.4). All samples contained 1.5 mM peptide concentration in 600 μL of sample volume except for hIAPP-F and Pramlintide-M, for which the final concentration was 100 μM (both peptides have a high tendency to aggregate at room temperature). The samples’ pH was manually adjusted to 7.4 with 0.1 M NaOD stock solution in 100% D2O. These samples were used for the ^1H and ^13C resonances assignment based on 2D spectra: ^1H-^13C HSQC ([Bodenhausen and Ruben, 1980]) tuned for the aliphatic region, HSQC-TOCSY ([Koz´min´ski and Koz´min´ski, 1999]), ^1H-^1H TOCSY ([Braunschweiler and Ernst, 1983]) mixing time 20 ms and 80 ms, ^1H-^1H ROESY ([Davis, 1985]) mixing time 300 ms and 500 ms. During the hIAPP-F and Pramlintide-M sample preparation, a temperature of 90°C was used to dissolve the peptides. After that, both samples were sonicated during the cooling down process to obtain a homogeneous solution. Spectra were measured immediately after sample preparation. The samples with the addition of metal ions were prepared with the same method as the samples of high tendency aggregation peptides hIAPP-F and Pramlintide-M.\nAll experiments were performed at a temperature of 310 K. The NMR spectra were acquired on spectrometers of 950, 800, and 700 MHz Bruker Avance NEO equipped with cryogenic TCI probes: • rIAPP-F, hIAPP-F, Pramlintide-M: 700 MHz, ^1H frequency = 700.21 MHz, ^13C frequency = 176.07 MHz • rIAPP-M: 800 MHz, ^1H frequency = 800.18 MHz, ^13C frequency = 201.21 MHz • Pramlintide-F, hIAPP-M: 950 MHz, ^1H frequency = 950.30 MHz, ^13C frequency = 238.96 MHz"}, "[2]": {"assay": "Thioflavin-T (ThT) aggregation assay", "type": "physicochemical", "conditions": "40 μM peptide, 20 μM ThT, 50 mM phosphate buffer pH 7.4, 25°C; for ThT fluorescence intensity (aggregation), peptide alone: ex 485/20, em 528/20 nm, read each 5 min; for ThT fluorescence intensity (aggregation) with Cu(II): Cu(II) (Cu(NO3)2) 1:1; for ThT fluorescence intensity (aggregation) with Zn(II): Zn(II) (ZnCl2) 1:1", "description": "(§1) Preparation of IAPP fragments solutions and thioflavin-T aggregation assays were performed as described earlier ([Alghrably et al., 2020]). In brief, IAPP fragments were dissolved in 50 mM phosphate buffer to concentrations of 1 mM. Stock solutions were diluted to the desired concentrations, and samples were used fresh each time. It is important to mention that due to the observation of turbidity after dissolving hIAPP-F and Pramlintide-M, both peptides were sonicated for 25 min. All of the aggregation reactions were conducted at 25°C with 40 μM IAPP fragments/mutants (final concentration) in 50 mM phosphate buffer (pH 7.4), and 20 μM thioflavin T in a final volume of 200 μL in each of the 96-well flat-bottom black plate (Corning 3915). We tested the aggregation of each IAPP fragment/mutants alone and with the addition of two metal ions Cu(II) and Zn(II). The metal ions were added to the IAPP fragments in 1:1 ratio. The plate was sealed with transparent film (Duck Brand Crystal Clear Tape, Avon, OH). Thioflavin T fluorescence emission at 528/20 nm (excitation at 485/20) was monitored on a Cytation 5 Multi-Mode Microplate. The measurements were collected by top reading each 5 min after a 3 s shake with an extended gain."}, "[3]": {"test_system": "HeLa cells", "assay": "CCK-8 cytotoxicity assay", "type": "cell-based, human", "description": "The cytotoxicity of the different peptides (rIAPP-F, hIAPP-F, Pramlintide-F, hIAPP-M, rIAPP-M, Pramlintide-M, and hIAPP) was tested using CCK-8 assay according to the manufacturer’s protocol. Briefly, cervical carcinoma cells (HeLa) were seeded into 96 well plates 8 × 10^3 cells/well in 100 µL DMEM culture medium with 10% FBS and 1% Penicillin-Streptomycin and incubated in a 5% CO2 incubator at 37°C overnight. After that, the cells were incubated with the different peptides prepared in deionized water at concentrations (200, 400, 600, and 800 μg/mL) for 24 h. In addition, the cytotoxicity of hIAPP-F and Pramlintide-M prepared in 0.5 mg/mL Cu(NO3)2 and ZnCl2 solutions at the same concentrations (200, 400, 600, and 800 μg/mL) was also tested. Cells without any treatment were used as a control, and all the conditions were done in triplicates. After 24 h, the media was discarded from the plate, and cells were washed with PBS. Then, 10 µL of CCK-8 and 90 µL of fresh DMEM media were added to each well and incubated for 4 h. The absorbance was measured at OD = […] using a microplate spectrophotometer (BioRad-xMark Microplate Absorbance Spectrophotometer). The ratio of the absorbance at 570/605 was calculated, and the average absorbance value of wells without cells was considered as blank and subtracted from all wells to cancel the background noise. The cells without any treatment were used as a control, and their mean value was considered 100% viable. The other treated cells’ viability was calculated using the formula: Cells viability % = (Corrected Mean Absorbance of treated cells)/(Corrected Mean Absorbance of control) ×100."}, "[4]": {"assay": "Atomic force microscopy (AFM) of fibrils", "type": "physicochemical", "description": "AFM imaging was conducted in a 256-scanning line at a 1 Hz scanning rate by using Bruker’s Nano Dimension Icon (Bruker Nano Inc., Germany). In this procedure, 200–300 μM hIAPP-F and Pramlintide-M were incubated with and without selected metal ions at 25°C for 24 h. All the samples were dissolved in 50 mM phosphate buffer (pH 7.4). The height of peptide aggregates was obtained from its section tool through Nano Scope Analysis 1.5, and the line position with average effects in the images was selected, except peptides alone in fibril form."}, "[5]": {"assay": "Turbidity on dissolving the peptide", "type": "physicochemical", "conditions": "dissolved in 50 mM phosphate buffer to 1 mM; observation; peptides then sonicated for 25 min", "description": "as §1"}, "[6]": {"conditions": "200 µM peptide, phosphate buffer pH 7.4, 25°C, 24 h"}, "[7]": {"conditions": "200 µM peptide alone, phosphate buffer pH 7.4, 25°C, 24 h, cross-section profile"}, "[8]": {"conditions": "peptide:Cu(II) 1:1, 200 µM, phosphate buffer pH 7.4, 24 h"}}, "note": "Entries after “also recorded” stand apart in the source; their conditions may differ. No end group written: not given here."}
{"compound": "SNNLGPILPP [rIAPP-M, custom-designed mutated fragment of rat amylin]", "values": [{"measurement": "NMR signal intensity over time (signal loss = aggregation), peptide alone", "setting": "[1]", "result": "no signal loss was observed over time"}, {"measurement": "ThT fluorescence intensity (aggregation), peptide alone", "setting": "[2]", "result": "no increase in fluorescence intensity; also recorded: did not show any increase in the fluorescence intensity"}, {"measurement": "ThT fluorescence intensity (aggregation) with Cu(II)", "setting": "[2]", "result": "neither metal ions Cu(II) nor Zn(II) have any influence on the aggregation rate"}, {"measurement": "ThT fluorescence intensity (aggregation) with Zn(II)", "setting": "[2]", "result": "neither metal ions Cu(II) nor Zn(II) have any influence on the aggregation rate"}]}
{"compound": "SNNFGAILPP [hIAPP-M, custom-designed mutated fragment of human amylin, last two serins mutated with prolines]", "values": [{"measurement": "NMR signal intensity over time (signal loss = aggregation), peptide alone", "setting": "[1]", "result": "no signal loss was observed over time"}, {"measurement": "ThT fluorescence intensity (aggregation), peptide alone", "setting": "[2]", "result": "no increase in fluorescence intensity; also recorded: did not show any increase in the fluorescence intensity"}, {"measurement": "ThT fluorescence intensity (aggregation) with Cu(II)", "setting": "[2]", "result": "neither metal ions Cu(II) nor Zn(II) have any influence on the aggregation rate"}, {"measurement": "ThT fluorescence intensity (aggregation) with Zn(II)", "setting": "[2]", "result": "neither metal ions Cu(II) nor Zn(II) have any influence on the aggregation rate"}]}
{"compound": "SNNFGAILSS [hIAPP-F]", "values": [{"measurement": "cell viability at 800 μg/mL", "setting": "[3]; HeLa cells, 24 h, CCK-8, peptide in deionized water, highest concentration tested, triplicates", "result": 60, "unit": "%"}, {"measurement": "cell viability, peptide-Cu(II) complex", "setting": "[3]; HeLa cells, peptide 200-800 μg/mL prepared in 0.5 mg/mL Cu(NO3)2, 24 h, CCK-8, n = 3", "result": "high cell viability"}, {"measurement": "cell viability / proliferation, peptide with Zn(II)", "setting": "[3]; HeLa cells, peptide 200-800 μg/mL prepared in 0.5 mg/mL ZnCl2, 24 h, CCK-8, n = 3", "result": "high cell proliferation rate"}, {"measurement": "fibril morphology (AFM), peptide alone", "setting": "[4]; [6]", "result": "twisted fibril"}, {"measurement": "fibril diameter (AFM), peptide alone", "setting": "[4]; 200 µM peptide, phosphate buffer pH 7.4, 25°C, 24 h, profile analysis", "result": "approximately 6 nm"}, {"measurement": "fibril diameter (AFM) with Zn(II)", "setting": "[4]; peptide:Zn 1:1, 200 µM, phosphate buffer pH 7.4, 24 h", "result": "same diameter as the matured helical-structured fibrils"}, {"measurement": "NMR signal intensity deterioration with Zn(II)", "setting": "[1]; 100 μM peptide, pH 7.4, with Zn(II)", "result": "occurred faster in the presence of Zn(II)"}, {"measurement": "NMR signal intensity over time (signal loss = aggregation), peptide alone", "setting": "[1]", "result": "decreased over time"}, {"measurement": "turbidity after dissolving", "setting": "[5]", "result": "turbidity"}, {"measurement": "time to reach saturation phase (ThT), peptide alone", "setting": "[2]", "result": "~2.5", "unit": "h"}, {"measurement": "ThT fluorescence intensity (aggregation) with Cu(II)", "setting": "[2]", "result": "completely inhibited the aggregation"}, {"measurement": "time to reach saturation phase (ThT) with Zn(II)", "setting": "[2]; Zn(II) 1:1", "result": "~2.5", "unit": "h"}, {"measurement": "ThT fluorescence intensity (aggregation) with Zn(II)", "setting": "[2]", "result": "increased the fluorescence intensity"}]}
{"compound": "CC[C@H](C)[C@H](NC(=O)[C@H](C)NC(=O)CNC(=O)[C@H](Cc1ccccc1)NC(=O)[C@H](CC(N)=O)NC(=O)[C@H](CC(N)=O)NC(=O)[C@H](CO)NC(=O)[C@H](CO)NC(=O)[C@H](Cc1c[nH]cn1)NC(=O)[C@@H](NC(=O)[C@H](CC(C)C)NC(=O)[C@H](Cc1ccccc1)NC(=O)[C@H](CC(N)=O)NC(=O)[C@H](C)NC(=O)[C@H](CC(C)C)NC(=O)[C@H](CCCNC(=N)N)NC(=O)[C@H](CCC(N)=O)NC(=O)[C@@H](NC(=O)[C@H](C)NC(=O)[C@@H]1CSSC[C@H](NC(=O)[C@@H](N)CCCCN)C(=O)N[C@@H](CC(N)=O)C(=O)N[C@@H]([C@@H](C)O)C(=O)N[C@@H](C)C(=O)N[C@@H]([C@@H](C)O)C(=O)N1)[C@@H](C)O)C(C)C)C(=O)N[C@@H](CC(C)C)C(=O)N[C@@H](CO)C(=O)N[C@@H](CO)C(=O)N[C@H](C(=O)N[C@@H](CC(N)=O)C(=O)N[C@H](C(=O)NCC(=O)N[C@@H](CO)C(=O)N[C@@H](CC(N)=O)C(=O)N[C@H](C(=O)N[C@@H](Cc1ccc(O)cc1)C(N)=O)[C@@H](C)O)C(C)C)[C@@H](C)O", "note": "[hIAPP]", "values": [{"measurement": "effect on cell viability, peptide alone", "setting": "[3]; HeLa cells, 200, 400, 600 and 800 μg/mL, 24 h, CCK-8, n = 3", "result": "highest level of toxicity"}, {"measurement": "cell viability at 400 μg/mL", "setting": "[3]; HeLa cells, 24 h, CCK-8, peptide in deionized water, triplicates", "result": 0, "unit": "%"}, {"measurement": "diameter of helical fibrils (AFM)", "setting": "[4]; [7]", "result": "5–6 nm"}, {"measurement": "diameter of ribbon fibrils (AFM)", "setting": "[4]; [7]", "result": "around 2 nm"}, {"measurement": "fibril length (AFM), some fibrils, peptide alone", "setting": "[4]; 200 µM peptide alone, phosphate buffer pH 7.4, 24 h, fibrils vary in length", "result": "> 2", "unit": "µm"}, {"measurement": "fibril morphology (AFM), peptide alone", "setting": "[4]; [6]", "result": "relatively short worm-like fibrils"}, {"measurement": "average fibril length (AFM) with Cu(II)", "setting": "[4]; [8]", "result": "less than 2 µm"}, {"measurement": "fibril diameter (AFM) with Cu(II)", "setting": "[4]; [8]", "result": "2–3 nm"}, {"measurement": "fibril morphology (AFM) with Cu(II)", "setting": "[4]; [8]", "result": "unique looping structure"}]}
{"compound": "SNNFGPILPP [Pramlintide-F, fragment derived from pramlintide, central region]", "values": [{"measurement": "NMR signal intensity over time (signal loss = aggregation), peptide alone", "setting": "[1]", "result": "no signal loss was observed over time"}, {"measurement": "ThT fluorescence intensity (aggregation), peptide alone", "setting": "[2]", "result": "no increase in fluorescence intensity; also recorded: did not show any increase in the fluorescence intensity"}, {"measurement": "ThT fluorescence intensity (aggregation) with Cu(II)", "setting": "[2]", "result": "neither metal ions Cu(II) nor Zn(II) have any influence on the aggregation rate"}, {"measurement": "ThT fluorescence intensity (aggregation) with Zn(II)", "setting": "[2]", "result": "neither metal ions Cu(II) nor Zn(II) have any influence on the aggregation rate"}]}
{"compound": "SNNLGPVLPP [rIAPP-F, fragment derived from rat amylin, central region]", "values": [{"measurement": "NMR signal intensity over time (signal loss = aggregation), peptide alone", "setting": "[1]", "result": "no signal loss was observed over time"}, {"measurement": "ThT fluorescence intensity (aggregation), peptide alone", "setting": "[2]", "result": "did not show any increase in the fluorescence intensity"}, {"measurement": "ThT fluorescence intensity (aggregation) with Cu(II)", "setting": "[2]", "result": "neither metal ions Cu(II) nor Zn(II) have any influence on the aggregation rate"}, {"measurement": "ThT fluorescence intensity (aggregation) with Zn(II)", "setting": "[2]", "result": "neither metal ions Cu(II) nor Zn(II) have any influence on the aggregation rate"}]}
